Reference: US20070191400A1, “Pharmaceutical compositions comprising anti-inflammatory quinazolinecarboxamide derivatives” (Rimonyx Pharmaceuticals Ltd., priority 2004, published 2007)

Assays:
[1] = biological target: T1, Recombinant Human L-Selectin/IgG binding to heparin (Homo sapiens, UniProt P14151); assay: Inhibition of L-selectin binding to heparin (ELISA, immobilized heparin-BSA); conditions: for IC50: compounds tested at 0.01 to 300 μM, representative results, read-out: IC-50, inhibition of L-Selectin binding to heparin; for inhibition at 30 µM: read-out: % Inhibition at 30 microMolar conc. (L-Selectin binding to heparin)
T1 construct: purchased Research and Development Systems 728-LS
T1 sequence (P14151 39-332 limits assumed): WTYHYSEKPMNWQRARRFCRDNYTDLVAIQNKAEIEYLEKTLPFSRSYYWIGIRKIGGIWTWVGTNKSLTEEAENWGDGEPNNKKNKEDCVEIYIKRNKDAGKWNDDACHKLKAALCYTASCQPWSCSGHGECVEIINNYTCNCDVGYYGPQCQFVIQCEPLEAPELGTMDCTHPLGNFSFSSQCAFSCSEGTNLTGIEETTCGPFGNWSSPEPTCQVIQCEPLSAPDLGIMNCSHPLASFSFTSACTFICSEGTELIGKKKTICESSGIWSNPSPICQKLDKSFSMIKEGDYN
Procedure: An in vitro assay was used to assess the ability of test compounds according to formula I to inhibit the interactions of L-selectin with HS-GAGs. The assay was suitable for determining the concentration required for 50% inhibition (IC-50) for each specific compound. In the assay, the GAG used was heparin. Thus, porcine intestinal mucosa heparin conjugated to Bovine Serum Albumin (Heparin-BSA; Sigma Cat. No. H0403) at 5 mg/ml in Phosphate-Buffered Saline (PBS; pH 6.5) was added to a 96-well polystyrene ELISA plate (NUNC Cat. No. 442404; 0.1 ml per well) and incubated over night at 4° C. Following the incubation, the plate was washed thoroughly, by immersion, with de-ionized water and PBS (pH 6.5). The ELISA plate was then blocked with BSA (ICN Cat. No.160069, 3%, 200 μl per well) for 1 hour at room temperature. Following blocking, the plate was washed with de-ionized water, and then with PBS (pH 6.5) containing Tween 20 (Sigma Cat. No. P-1379, 0.05%). Compounds were synthesized or purchased from suppliers of chemical compounds such as ChemDiv Labs (San Diego, Calif.), dissolved in DMSO, diluted in PBS and added to the wells at various concentrations in the range of 0.01 to 300 μM. Recombinant Human L-Selectin/IgG (Research and Development Systems Cat. No.728-LS) dissolved in PBS supplemented with BSA (0.1%) and calcium chloride (1 mM) was added to the ELISA plate (100 μl per well) and incubated for 60 minutes at room temperature with shaking. Following incubation, the plate was washed with de-ionized water and three times with PBS (pH 6.5) containing Tween 20. Anti-Human IgG Peroxidase Conjugate (1:5000; Sigma Product No. A8667) diluted in PBS supplemented with BSA (0.1%) and calcium chloride (1 mM) was added to the ELISA plate (100 μl per well) and incubated for 30 minutes at room temperature with shaking. The plate was then washed with de-ionized water and three times with PBS (pH 6.5) containing Tween 20. The peroxidase substrate chromogen tetramethyl benzidine (TMB; Dako Cat. No. S1599) was added (100 μl per well) to the ELISA plate and incubated at room temperature. After 15 minutes, ELISA Stop Solution (hydrochloric acid 1N, sulfuric acid 3N) was added (200 μl per well) to stop the peroxidase catalyzed colorimetric reaction. The Optical Density (OD) of the samples was measured at 450 nm using an ELISA plate reader (Dynatech MR5000). Data were analyzed with Graphpad Prism software and IC-50 values were established.

[2] = biological target: T2, CMV envelope glycoprotein B binding to immobilized heparin (Human cytomegalovirus, UniProt P06473); assay: Inhibition of CMV envelope glycoprotein B binding to immobilized heparin (ELISA); conditions: for inhibition at 30 µM: read-out: % Inhibition at 30 microMolar conc. (CMV envelope glycoprotein B binding to immobilized heparin); for inhibition at 100 µM: read-out: % Inhibition at 100 microMolar conc. (CMV envelope glycoprotein B binding to immobilized heparin)
T2 construct: purchased Research Diagnostics, INC; RDI-RCMVAG-B
Procedure: Porcine intestinal mucosa heparin conjugated to Bovine Serum Albumin (Heparin-BSA; Sigma Cat. No. H0403) at 5 mg/ml in Phosphate-Buffered Saline (PBS; pH 6.5) was added to a 96-well polystyrene ELISA plate (NUNC Cat. No. 442404; 0.1 ml per well) and incubated over night at 4° C. Following the incubation, the plate was washed consecutively, by immersion, with de-ionized water and PBS (pH 6.5). The ELISA plate was then blocked with BSA (ICN Cat. No. 160069, 3%, 200 μl per well) for 1 hour at room temperature. Following blocking, the plate was washed with de-ionized water, and then with PBS (pH 6.5) plus Tween 20 (0.05%). CMV envelope glycoprotein B (Research Diagnostics, INC. Cat. No. RDI-RCMVAG-B) dissolved in PBS (supplemented with BSA (0.1%)) was added to the ELISA plate (100 μl per well) and incubated for 60 minutes at room temperature with shaking. Following incubation, the plate was washed with de-ionized water and with PBS (pH 6.5) plus Tween. Mouse anti-human Cytomegalovirus gB antibody (Research Diagnostics, INC. Cat. No. RDI-CMVG Babm) diluted in PBS (supplemented with BSA(0.1%)), 1:2000, was added to the ELISA plate (100 μl per well) and incubated for 90 minutes at room temperature with shaking. Following the incubation, the plate was washed with de-ionized water and PBS (pH 6.5) plus Tween. Goat anti-Mouse IgG (H&L) Peroxidase Conjugated antibody (Chemicon International, Inc. Cat. No. AP124P) diluted in PBS (supplemented with BSA (0.1%)), 1:1000, was added to the ELISA plate (100 μl per well) and incubated for 30 minutes at room temperature with shaking. Following the incubation, the plate was washed with de-ionized water and with PBS (pH 6.5) plus Tween. The peroxidase substrate chromogen, TMB (Dako Cat. No. S1599) was added (100 μl per well) to the ELISA plate and incubated at room temperature. After 15 minutes, ELISA Stop Solution (hydrochloric acid iN, sulfuric acid 3N) was added (200 μl per well) to stop the peroxidase catalyzed colorimetric reaction. The Optical Density (OD) of the samples was measured at 450 nm using an ELISA plate reader (Dynatech MR5000).
The CMV envelope glycoprotein B (GBVP) binding assay described above was used to screen a synthetic chemical compound collection on 96-well plates. The compound collection was purchased from ChemDiv Inc. (San Diego, Calif.). […] Individual compounds at a final concentration of 30 or 100 μM were co-incubated with the GBVP on plates containing immobilized heparin and, following washing, bound GBVP was detected with anti-CMV GBVP antibody and secondary antibody conjugated to horseradish peroxidase, as described above. Following color development, the % inhibition compared to control (no compound) for every compound was determined. Compounds that inhibited at least 30% of the signal were scored as hits.

[3] = tested on: BALB/c mice; assay: Thioglycollate-induced leukocyte and neutrophil infiltration into mouse peritoneum; assay type: in vivo; conditions: 10 mg/kg i.p.
Procedure: BALB/c mice (Velaz, Prague; 6 weeks old, ˜20 g in weight, 15 mice/group) received intraperitoneal injection of an inhibitor compound in 0.2 ml DMSO/Tween/sterile saline 1 hour before administration of thioglycollate (Sigma). Control groups received vehicle and sham controls received no thioglycollate. Mice were injected intraperitoneally with 1 ml of 3% thioglycollate broth (Xie, X. et al., J. Biol. Chem., 275, 34818-34825, 2000). Mice were sacrificed after 3 hours, and the peritoneal cavities were lavaged with 5 ml of ice-cold saline containing 2 mM EDTA to prevent clotting. After red blood cell lysis, leukocytes were counted in a hemocytometer. Neutrophils were counted after staining with Türck's reagent (Merck, Darmstadt, Germany). Data was expressed as mean ±SEM, and statistical analysis was performed by Student t test. A value of p<0.05 was taken to denote statistical significance.

[4] = tested on: BALB/c mice; assay: Carrageenan-induced paw edema; assay type: in vivo, mouse
Procedure: Acute edema was induced in the left hind paw of BALB/c mice (12 mice/group) by injecting 0.02 ml of freshly prepared solution of 2% carrageenan (Sigma) after 60 min of test compound administration (Torres, S. R. et al., European Journal of Pharmacology 408: 199-211, 2000). […], which served as a control. Carrageenan was injected under the plantar region of […] and the paw thickness was measured at 2,4 and 24 hours after carrageenan challenge using a Mitutoyo engineer's micrometer expressed as the difference between right and left pad as mean ±SEM.

[5] = tested on: BALB/c mice; assay: Delayed-type hypersensitivity (DTH), oxazolone mouse ear-swelling test; assay type: in vivo; conditions: 25 mg/kg per os, 1 hr prior to challenge; 24 hours after challenge
Procedure: BALB/c mice (Velaz, Prague, Czech Republic; 8 weeks old; 15 animals per group) were sensitized by topical application of a 2% oxazolone (4-ethoxymethylene -2-phenyl-2-oxazoline-5-one; Sigma, St Louis, Mo.) solution in acetone/olive oil (4:1 vol/vol) to shaved abdomen (50 μl) and to each paw (5 μl) (Lange-Asschenfeldt B. et al., Blood 99:538-545, 2002). Five days after sensitization, right ears were challenged by topical application of 10 μl of a 1% oxazolone solution, whereas left ears were treated with vehicle alone. Compounds were administered 1 hr prior to challenge. The extent of inflammation was measured 24 hours after challenge, using the mouse ear-swelling test. Animals were numbered (tail marking) and weighed and the thickness of both ears was recorded with a constant-loading dial micrometer (Mitutoyo, Tokyo). The unpaired Student t-test was used for statistical analyses.

T2 sequence (P06473 32-906): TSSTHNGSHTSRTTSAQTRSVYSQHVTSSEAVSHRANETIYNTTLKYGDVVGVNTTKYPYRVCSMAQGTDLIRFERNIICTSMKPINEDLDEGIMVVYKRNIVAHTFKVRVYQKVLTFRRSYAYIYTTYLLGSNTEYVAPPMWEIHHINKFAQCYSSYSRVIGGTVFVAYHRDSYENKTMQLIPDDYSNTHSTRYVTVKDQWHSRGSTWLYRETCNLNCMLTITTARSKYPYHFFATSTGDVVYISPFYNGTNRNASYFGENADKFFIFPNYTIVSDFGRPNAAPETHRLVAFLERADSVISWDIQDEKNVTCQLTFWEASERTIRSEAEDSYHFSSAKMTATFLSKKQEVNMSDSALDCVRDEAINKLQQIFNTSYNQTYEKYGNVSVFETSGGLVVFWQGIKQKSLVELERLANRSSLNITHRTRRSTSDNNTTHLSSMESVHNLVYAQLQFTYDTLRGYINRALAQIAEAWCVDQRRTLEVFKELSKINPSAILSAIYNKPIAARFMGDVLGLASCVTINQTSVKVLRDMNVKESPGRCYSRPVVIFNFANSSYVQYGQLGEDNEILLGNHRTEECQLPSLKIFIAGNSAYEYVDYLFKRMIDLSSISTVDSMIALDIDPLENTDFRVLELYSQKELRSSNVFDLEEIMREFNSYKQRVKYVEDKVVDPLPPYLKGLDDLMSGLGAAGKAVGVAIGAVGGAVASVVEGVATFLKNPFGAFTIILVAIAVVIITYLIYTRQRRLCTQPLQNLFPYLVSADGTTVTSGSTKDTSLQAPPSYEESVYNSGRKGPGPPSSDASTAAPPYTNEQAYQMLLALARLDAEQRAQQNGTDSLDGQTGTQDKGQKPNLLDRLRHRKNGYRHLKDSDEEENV

## 2-[[2-[[(3-chlorophenyl)methyl]thio]-3-pentyl-3,4-dihydro-4-oxo-N-(4-methylpiperazin -7-quinazolinecarboxamide [Compound 8]
[1]; 30 microMolar
  % Inhibition at 30 microMolar conc. (L-Selectin binding to heparin): 59%

## O=C(NCCCN1CCOCC1)c1ccc2c(=O)n(-c3ccc(F)cc3)c(SCc3ccc(Cl)cc3)nc2c1 [Compound 1, 2-[[(4-chlorophenyl)methyl]thio]-3-(4-fluorophenyl)-3,4-dihydro-4-oxo-N-[3-(4-morpholinyl)propyl]-7-quinazolinecarboxamide]
[2]
  inhibition at 30 µM: 33%
[3]; 1 hour before thioglycollate, 3 hours
  Leukocyte migration into the peritoneal cavity: inhibited efficiently
[3]; 3 hours after thioglycollate
  Neutrophil accumulation in the peritoneal cavity: 48 % of control value
[4]; 1 mg/kg oral, 24 hours after induction
  Inhibition of paw edema (difference in paw thickness): inhibited paw edema
[1]
  IC50: 7 ± 1 µM

## Cc1ccc(CSc2nc3cc(C(=O)NCCCN4CCOCC4)ccc3c(=O)n2-c2ccc(F)cc2)cc1 [Compound 2, 2-[[(4-methylphenyl)methyl]thio]-3-(4-fluorophenyl)-3,4-dihydro-4-oxo-N-[3-(4-morpholinyl)propyl]-7-quinazolinecarboxamide]
[2]
  inhibition at 100 µM: 86%
[5]
  Inhibition of DTH (difference in ear thickness): inhibited DTH
[1]
  IC50: 24 ± 1.2 µM

## O=C(NCCCN1CCOCC1)c1ccc2c(=O)n(-c3ccc(F)cc3)c(SCc3cccc(F)c3)nc2c1 [Compound 3, 2-[[(3-fluorophenyl)methyl]thio]-3-(4-fluorophenyl)-3,4-dihydro-4-oxo-N-[3-(4-morpholinyl)propyl]-7-quinazolinecarboxamide]
[2]
  inhibition at 30 µM: 85%
  inhibition at 100 µM: 88%
[1]
  IC50: 22 ± 1.2 µM

## COCCNC(=O)c1ccc2c(=O)n(Cc3ccco3)c(SCc3cc(=O)n4ccccc4n3)nc2c1 [Compound 5, 2-[[(4-oxo-4H-pyrido [1,2-a]pyrimidin-2-yl)methyl]thio]-3-(2-furanylmethyl) -3,4-dihydro-4-oxo-N-(2-methoxyethyl)-7-quinazolinecarboxamide]
[1]
  inhibition at 30 µM: 50%
[1]; read-out: % Inhibition at 100 microMolar conc. (L-Selectin binding to heparin)
  inhibition at 100 µM: 52%

## O=C(CSc1nc2cc(C(=O)NCCCN3CCCCC3)ccc2c(=O)n1CC1CCCO1)c1ccccc1 (stereo not shown) [Compound 6, 2-[(2-oxo-2-phenylethyl)thio]-3-[(tetrahydro-2-furanyl)methyl]-3,4-dihydro-4-oxo -N-[3-(1-piperidinyl)propyl]-7-quinazolinecarboxamide]
[1]
  inhibition at 30 µM: 30%

## CCCCCn1c(SCc2ccncc2)nc2cc(C(=O)N3CCN(C(=O)OCC)CC3)ccc2c1=O [Compound 7, 4-[[3,4-dihydro-4-oxo-3-pentyl-2-[(4-pyridinylmethyl)thio]-7-quinazolinyl]carbonyl]-1-piperazinecarboxylic acid ethyl ester]
[1]
  inhibition at 30 µM: 83%

## CC(C)Cn1c(S)nc2cc(C(=O)NCCCn3ccnc3)ccc2c1=O [Compound 9, 2-mercapto-3-(2-methylpropyl-3)-3,4-dihydro-4-oxo-N-[3-(1N-imidazol-1-yl)propyl]-7-quinazolinecarboxamide]
[4]; 50 mg/kg oral, measured after 24 hours
  Inhibition of paw edema (difference in paw thickness): inhibited paw edema
[1]
  IC50: 21 ± 1.6 µM

## CN1CCN(C(=O)c2ccc3c(=O)n(-c4ccccc4)c(SCC(=O)C(C)(C)C)nc3c2)CC1 [Compound 10]
[1]
  IC50: 22 ± 1.5 µM
